Experimental data taken from PubChem BioAssay (NCI).
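GI50 marks 50% less growth. TGI: concentration producing complete growth inhibition.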

How the values were obtained:
Experiment in all cases: growth of human tumour cells (NCI), 384-well format
NCI-H322M lung = tested on: NCI-H322M lung
UO-31 renal = tested on: UO-31 renal
DU-145 prostate = tested on: DU-145 prostate
OVCAR-8 ovarian = tested on: OVCAR-8 ovarian
EKVX NSCLC = tested on: EKVX NSCLC
A498 renal = tested on: A498 renal
U251 glioblastoma = tested on: U251 glioblastoma
HL-60(TB) leukemia = tested on: HL-60(TB) leukemia
MOLT-4 leukemia = tested on: MOLT-4 leukemia
CCRF-CEM leukemia = tested on: CCRF-CEM leukemia
PC-3 prostate = tested on: PC-3 prostate
ACHN renal = tested on: ACHN renal
HS 578T breast = tested on: HS 578T breast
SF-295 CNS = tested on: SF-295 CNS
HT29 colon = tested on: HT29 colon
NCI-H460 NSCLC = tested on: NCI-H460 NSCLC
K-562 leukemia = tested on: K-562 leukemia
HCC-2998 colon = tested on: HCC-2998 colon
HOP-62 NSCLC = tested on: HOP-62 NSCLC
SF-539 CNS = tested on: SF-539 CNS
SNB-19 CNS = tested on: SNB-19 CNS
OVCAR-3 ovarian = tested on: OVCAR-3 ovarian
UACC-62 melanoma = tested on: UACC-62 melanoma
SK-MEL-5 melanoma = tested on: SK-MEL-5 melanoma
MDA-MB-435 melanoma = tested on: MDA-MB-435 melanoma
SW-620 colon = tested on: SW-620 colon
M14 melanoma = tested on: M14 melanoma
SNB-75 CNS = tested on: SNB-75 CNS
T-47D breast = tested on: T-47D breast
CAKI-1 renal = tested on: CAKI-1 renal
OVCAR-5 ovarian = tested on: OVCAR-5 ovarian
HCT-15 colon = tested on: HCT-15 colon
RXF 393 renal = tested on: RXF 393 renal
COLO 205 colon = tested on: COLO 205 colon
RPMI-8226 leukemia = tested on: RPMI-8226 leukemia
NCI-H23 lung = tested on: NCI-H23 lung
SR leukemia = tested on: SR leukemia
HOP-92 NSCLC = tested on: HOP-92 NSCLC
UACC-257 melanoma = tested on: UACC-257 melanoma
HCT-116 colon = tested on: HCT-116 colon
SK-OV-3 ovarian = tested on: SK-OV-3 ovarian
OVCAR-4 ovarian = tested on: OVCAR-4 ovarian
MALME-3M melanoma = tested on: MALME-3M melanoma
MCF7 breast = tested on: MCF7 breast
NCI/ADR-RES ovarian = tested on: NCI/ADR-RES ovarian
NCI-H226 lung = tested on: NCI-H226 lung
LOX IMVI melanoma = tested on: LOX IMVI melanoma

Question: For `COC(=O)c1ccc([C@H]2c3[nH]c4ccccc4c3C[C@H](C(=O)OC)N2C(=O)CCl)cc1`, which GI50 (NCI-H322M lung) is on record?
Answer: 1140 nM

Question: What about the TGI (NCI-H322M lung) of the same compound?
Answer: 2420 nM

Question: What about the GI50 (UO-31 renal) of the same compound?
Answer: < 10 nM

Question: And the TGI (UO-31 renal)?
Answer: < 10 nM

Question: And the GI50 (DU-145 prostate)?
Answer: 336 nM

Question: And the TGI (DU-145 prostate)?
Answer: 1640 nM

Question: And the GI50 (OVCAR-8 ovarian)?
Answer: 66.5 nM

Question: And the TGI (OVCAR-8 ovarian)?
Answer: 248 nM

Question: And the GI50 (EKVX NSCLC)?
Answer: < 10 nM

Question: What about the TGI (EKVX NSCLC) of the same compound?
Answer: 22.4 nM

Question: And the GI50 (A498 renal)?
Answer: 20.5 nM

Question: And the TGI (A498 renal)?
Answer: 43.8 nM

Question: And the GI50 (U251 glioblastoma)?
Answer: 119 nM

Question: What about the TGI (U251 glioblastoma) of the same compound?
Answer: 399 nM

Question: What about the GI50 (HL-60(TB) leukemia) of the same compound?
Answer: < 10 nM

Question: What about the TGI (HL-60(TB) leukemia) of the same compound?
Answer: 10.2 nM

Question: What about the GI50 (MOLT-4 leukemia) of the same compound?
Answer: 15.5 nM

Question: And the TGI (MOLT-4 leukemia)?
Answer: 29.4 nM

Question: And the GI50 (CCRF-CEM leukemia)?
Answer: < 10 nM

Question: What about the TGI (CCRF-CEM leukemia) of the same compound?
Answer: 15 nM

Question: What about the GI50 (PC-3 prostate) of the same compound?
Answer: 34.4 nM

Question: And the TGI (PC-3 prostate)?
Answer: 140 nM

Question: And the GI50 (ACHN renal)?
Answer: < 10 nM

Question: What about the TGI (ACHN renal) of the same compound?
Answer: < 10 nM

Question: What about the GI50 (HS 578T breast) of the same compound?
Answer: 131 nM

Question: What about the TGI (HS 578T breast) of the same compound?
Answer: 311 nM

Question: And the GI50 (SF-295 CNS)?
Answer: 103 nM

Question: And the TGI (SF-295 CNS)?
Answer: 221 nM

Question: And the GI50 (HT29 colon)?
Answer: 227 nM

Question: And the TGI (HT29 colon)?
Answer: 707 nM

Question: And the GI50 (NCI-H460 NSCLC)?
Answer: 574 nM

Question: And the TGI (NCI-H460 NSCLC)?
Answer: 1940 nM

Question: And the GI50 (K-562 leukemia)?
Answer: 46.2 nM

Question: What about the TGI (K-562 leukemia) of the same compound?
Answer: 382 nM

Question: What about the GI50 (HCC-2998 colon) of the same compound?
Answer: 30.3 nM

Question: What about the TGI (HCC-2998 colon) of the same compound?
Answer: 177 nM

Question: What about the GI50 (HOP-62 NSCLC) of the same compound?
Answer: 10.7 nM

Question: And the TGI (HOP-62 NSCLC)?
Answer: 35.5 nM

Question: And the GI50 (SF-539 CNS)?
Answer: 33.9 nM

Question: And the TGI (SF-539 CNS)?
Answer: 114 nM

Question: And the GI50 (SNB-19 CNS)?
Answer: 1300 nM

Question: What about the TGI (SNB-19 CNS) of the same compound?
Answer: 2590 nM

Question: And the GI50 (OVCAR-3 ovarian)?
Answer: 14.3 nM

Question: And the TGI (OVCAR-3 ovarian)?
Answer: 28.8 nM

Question: What about the GI50 (UACC-62 melanoma) of the same compound?
Answer: 19.3 nM

Question: What about the TGI (UACC-62 melanoma) of the same compound?
Answer: 41.6 nM

Question: And the GI50 (SK-MEL-5 melanoma)?
Answer: 479 nM

Question: What about the TGI (SK-MEL-5 melanoma) of the same compound?
Answer: 1760 nM

Question: And the GI50 (MDA-MB-435 melanoma)?
Answer: 346 nM

Question: What about the TGI (MDA-MB-435 melanoma) of the same compound?
Answer: 1570 nM

Question: And the GI50 (SW-620 colon)?
Answer: 199 nM

Question: What about the TGI (SW-620 colon) of the same compound?
Answer: 504 nM

Question: What about the GI50 (M14 melanoma) of the same compound?
Answer: 51.2 nM

Question: And the TGI (M14 melanoma)?
Answer: 216 nM

Question: And the GI50 (SNB-75 CNS)?
Answer: 18.5 nM

Question: And the TGI (SNB-75 CNS)?
Answer: 41.4 nM

Question: And the GI50 (T-47D breast)?
Answer: 58.2 nM

Question: And the TGI (T-47D breast)?
Answer: 764 nM

Question: What about the GI50 (CAKI-1 renal) of the same compound?
Answer: < 10 nM

Question: What about the TGI (CAKI-1 renal) of the same compound?
Answer: < 10 nM

Question: And the GI50 (OVCAR-5 ovarian)?
Answer: 289 nM

Question: And the TGI (OVCAR-5 ovarian)?
Answer: 1580 nM

Question: And the GI50 (HCT-15 colon)?
Answer: 157 nM

Question: And the TGI (HCT-15 colon)?
Answer: 913 nM

Question: And the GI50 (RXF 393 renal)?
Answer: < 10 nM

Question: And the TGI (RXF 393 renal)?
Answer: 15.2 nM

Question: What about the GI50 (COLO 205 colon) of the same compound?
Answer: 238 nM

Question: What about the TGI (COLO 205 colon) of the same compound?
Answer: 1150 nM

Question: And the GI50 (RPMI-8226 leukemia)?
Answer: 14.2 nM

Question: What about the TGI (RPMI-8226 leukemia) of the same compound?
Answer: 28.4 nM

Question: And the GI50 (NCI-H23 lung)?
Answer: < 10 nM

Question: And the TGI (NCI-H23 lung)?
Answer: 12 nM

Question: What about the GI50 (SR leukemia) of the same compound?
Answer: < 10 nM

Question: What about the TGI (SR leukemia) of the same compound?
Answer: 20.5 nM

Question: And the GI50 (HOP-92 NSCLC)?
Answer: < 10 nM

Question: And the TGI (HOP-92 NSCLC)?
Answer: < 10 nM

Question: What about the GI50 (UACC-257 melanoma) of the same compound?
Answer: 86.8 nM

Question: What about the TGI (UACC-257 melanoma) of the same compound?
Answer: 336 nM

Question: What about the GI50 (HCT-116 colon) of the same compound?
Answer: 366 nM

Question: And the TGI (HCT-116 colon)?
Answer: 1450 nM

Question: And the GI50 (SK-OV-3 ovarian)?
Answer: 158 nM

Question: What about the TGI (SK-OV-3 ovarian) of the same compound?
Answer: 299 nM

Question: What about the GI50 (OVCAR-4 ovarian) of the same compound?
Answer: < 10 nM

Question: And the TGI (OVCAR-4 ovarian)?
Answer: < 10 nM

Question: What about the GI50 (MALME-3M melanoma) of the same compound?
Answer: 14.8 nM

Question: And the TGI (MALME-3M melanoma)?
Answer: 29 nM

Question: And the GI50 (MCF7 breast)?
Answer: 553 nM

Question: And the TGI (MCF7 breast)?
Answer: 1830 nM

Question: What about the GI50 (NCI/ADR-RES ovarian) of the same compound?
Answer: 25.1 nM

Question: And the TGI (NCI/ADR-RES ovarian)?
Answer: 102 nM

Question: And the GI50 (NCI-H226 lung)?
Answer: 75.1 nM

Question: And the TGI (NCI-H226 lung)?
Answer: 449 nM

Question: And the GI50 (LOX IMVI melanoma)?
Answer: < 10 nM

Question: And the TGI (LOX IMVI melanoma)?
Answer: < 10 nM
